Earlier results as cited in patent US20180344690A1, “Methods and Formulation for Enhancing Response to Radiotherapy” (The Board of Trustees of the Leland Stanford Junior …, priority 2017, published 2018).

What was measured:
APL = settings: untreated control 18 days; cytarabine vs cytarabine+Plerixafor p<0.0006; cited from earlier work
multiple myeloma (MM) = settings: cited from earlier work

Row | SMILES | median overall survival (APL) [days] | tumor progression (multiple myeloma (MM); bortezomib vs control P=0.041, combination vs control P=0.001, vs bortezomib alone P=0.021) | tumor involvement in BM, liver and spleen (multiple myeloma (MM); mouse, in vivo)
1 | Nc1ccn([C@@H]2O[C@H](CO)[C@@H](O)[C@@H]2O)c(=O)n1 [cytarabine] | 23 | – | –
2 | CC(C)C[C@H](NC(=O)[C@H](Cc1ccccc1)NC(=O)c1cnccn1)B(O)O [bortezomib] | – | reduction in tumor progression compared with control | significant decrease of tumor cells
